In publication PMC6120666 (The EMBO Journal, 2018):

What was measured:
Assay in all cases: Drug affinity chromatography with c-ponatinib and LC-MS/MS (ponatinib interactome)
Format in all cases: binding
[1] = target: T1, proteins of U2OS cell lysate (Homo sapiens, UniProt O00410); details: IPO5, Importin-5
T1 construct: Proteins enriched by c-ponatinib from U2OS cell lysate; endogenous in cells; host or cells: U2OS cell lysate
Procedure, shortened: (§1)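 U2OS cell lysate in NP-40 lysis buffer (2 mg protein per pulldown) was incubated with amine-derivatized NHS beads for 2 h at 4 °C. Bound proteins were washed, eluted with 100 mM formic acid, reduced, alkylated and trypsin-digested, then identified by nano-UPLC–MS/MS on Orbitrap instruments with a 60 min gradient.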

[2] = target: T2, proteins of U2OS cell lysate (Homo sapiens, UniProt P49759); details: CLK1, Dual specificity protein kinase CLK1
T2 construct: Proteins enriched by c-ponatinib from U2OS cell lysate; endogenous in cells; host or cells: U2OS cell lysate
Procedure, shortened: as §1

[3] = target: T3, proteins of U2OS cell lysate (Homo sapiens, UniProt Q01082); details: SPTBN1, Spectrin beta chain, non-erythrocytic 1
T3 construct: Proteins enriched by c-ponatinib from U2OS cell lysate; endogenous in cells; host or cells: U2OS cell lysate
Procedure, shortened: as §1

[4] = target: T4, proteins of U2OS cell lysate (Homo sapiens, UniProt Q15365); details: PCBP1, Poly(rC)-binding protein 1
T4 construct: Proteins enriched by c-ponatinib from U2OS cell lysate; endogenous in cells; host or cells: U2OS cell lysate
Procedure, shortened: as §1

[5] = target: T5, proteins of U2OS cell lysate (Homo sapiens, UniProt Q99623); details: PHB2, Prohibitin-2
T5 construct: Proteins enriched by c-ponatinib from U2OS cell lysate; endogenous in cells; host or cells: U2OS cell lysate
Procedure, shortened: as §1

[6] = target: T6, proteins of U2OS cell lysate (Homo sapiens, UniProt P11142); details: HSPA8, Heat shock cognate 71 kDa protein
T6 construct: Proteins enriched by c-ponatinib from U2OS cell lysate; endogenous in cells; host or cells: U2OS cell lysate
Procedure, shortened: as §1

[7] = target: T7, proteins of U2OS cell lysate (Homo sapiens, UniProt O95819); details: MAP4K4, Mitogen-activated protein kinase kinase kinase kinase 4
T7 construct: Proteins enriched by c-ponatinib from U2OS cell lysate; endogenous in cells; host or cells: U2OS cell lysate
Procedure, shortened: as §1

[8] = target: T8, proteins of U2OS cell lysate (Homo sapiens, UniProt Q13813); details: SPTAN1, Spectrin alpha chain, non-erythrocytic 1
T8 construct: Proteins enriched by c-ponatinib from U2OS cell lysate; endogenous in cells; host or cells: U2OS cell lysate
Procedure, shortened: as §1

[9] = target: T9, proteins of U2OS cell lysate (Homo sapiens, UniProt P42684); details: ABL2, Abelson tyrosine-protein kinase 2
T9 construct: Proteins enriched by c-ponatinib from U2OS cell lysate; endogenous in cells; host or cells: U2OS cell lysate
Procedure, shortened: as §1

[10] = target: T10, proteins of U2OS cell lysate (Homo sapiens, UniProt O75821); details: EIF3G, Eukaryotic translation initiation factor 3 subunit G
T10 construct: Proteins enriched by c-ponatinib from U2OS cell lysate; endogenous in cells; host or cells: U2OS cell lysate
Procedure, shortened: as §1

[11] = target: T11, proteins of U2OS cell lysate (Homo sapiens, UniProt P39019); details: RPS19, 40S ribosomal protein S19
T11 construct: Proteins enriched by c-ponatinib from U2OS cell lysate; endogenous in cells; host or cells: U2OS cell lysate
Procedure, shortened: as §1

[12] = target: T12, proteins of U2OS cell lysate (Homo sapiens, UniProt O43809); details: NUDT21, Cleavage and polyadenylation specificity factor subunit 5
T12 construct: Proteins enriched by c-ponatinib from U2OS cell lysate; endogenous in cells; host or cells: U2OS cell lysate
Procedure, shortened: as §1

[13] = target: T13, proteins of U2OS cell lysate (Homo sapiens, UniProt Q13428); details: TCOF1, Treacle protein
T13 construct: Proteins enriched by c-ponatinib from U2OS cell lysate; endogenous in cells; host or cells: U2OS cell lysate
Procedure, shortened: as §1

[14] = target: T14, proteins of U2OS cell lysate (Homo sapiens, UniProt P29323); details: EPHB2, Ephrin type-B receptor 2
T14 construct: Proteins enriched by c-ponatinib from U2OS cell lysate; endogenous in cells; host or cells: U2OS cell lysate
Procedure, shortened: as §1

[15] = target: T15, proteins of U2OS cell lysate (Homo sapiens, UniProt P40939); details: HADHA, Trifunctional enzyme subunit alpha, mitochondrial
T15 construct: Proteins enriched by c-ponatinib from U2OS cell lysate; endogenous in cells; host or cells: U2OS cell lysate
Procedure, shortened: as §1

[16] = target: T16, proteins of U2OS cell lysate (Homo sapiens, UniProt Q00839); details: captured protein HNRNPU, Rank 192
T16 construct: Proteins enriched by c-ponatinib from U2OS cell lysate; endogenous in cells; host or cells: U2OS cell lysate
Procedure, shortened: as §1

[17] = target: T17, proteins of U2OS cell lysate (Homo sapiens, UniProt P62316); details: captured protein SNRPD2, Rank 185
T17 construct: Proteins enriched by c-ponatinib from U2OS cell lysate; endogenous in cells; host or cells: U2OS cell lysate
Procedure, shortened: as §1

[18] = target: T18, proteins of U2OS cell lysate (Homo sapiens, UniProt P55884); details: captured protein EIF3B, Rank 123
T18 construct: Proteins enriched by c-ponatinib from U2OS cell lysate; endogenous in cells; host or cells: U2OS cell lysate
Procedure, shortened: as §1

[19] = target: T19, proteins of U2OS cell lysate (Homo sapiens, UniProt P10606); details: captured protein COX5B, Rank 183
T19 construct: Proteins enriched by c-ponatinib from U2OS cell lysate; endogenous in cells; host or cells: U2OS cell lysate
Procedure, shortened: as §1

T17 sequence (P62316 whole entry): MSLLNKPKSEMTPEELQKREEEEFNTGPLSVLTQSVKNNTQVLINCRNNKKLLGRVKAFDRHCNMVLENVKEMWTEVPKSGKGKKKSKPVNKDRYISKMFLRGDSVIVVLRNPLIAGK
T6 sequence (P11142 whole entry): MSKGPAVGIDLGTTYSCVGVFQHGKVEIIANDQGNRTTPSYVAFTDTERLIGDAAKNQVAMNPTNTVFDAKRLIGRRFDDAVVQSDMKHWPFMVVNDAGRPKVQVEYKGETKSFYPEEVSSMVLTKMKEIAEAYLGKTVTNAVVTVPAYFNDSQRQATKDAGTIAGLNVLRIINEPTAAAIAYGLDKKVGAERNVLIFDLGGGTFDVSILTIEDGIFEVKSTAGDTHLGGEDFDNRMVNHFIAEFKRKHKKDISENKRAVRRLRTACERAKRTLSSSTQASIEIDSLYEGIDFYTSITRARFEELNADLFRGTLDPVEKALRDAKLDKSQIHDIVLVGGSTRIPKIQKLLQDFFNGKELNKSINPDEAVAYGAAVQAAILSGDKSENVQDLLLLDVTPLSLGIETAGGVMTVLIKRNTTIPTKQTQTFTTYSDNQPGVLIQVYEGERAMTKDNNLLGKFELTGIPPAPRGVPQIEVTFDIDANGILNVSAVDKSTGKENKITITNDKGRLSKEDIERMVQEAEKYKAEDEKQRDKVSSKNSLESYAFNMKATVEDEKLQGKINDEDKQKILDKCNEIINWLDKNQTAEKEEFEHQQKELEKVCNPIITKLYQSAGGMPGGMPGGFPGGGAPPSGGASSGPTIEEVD
T3 sequence (Q01082 whole entry): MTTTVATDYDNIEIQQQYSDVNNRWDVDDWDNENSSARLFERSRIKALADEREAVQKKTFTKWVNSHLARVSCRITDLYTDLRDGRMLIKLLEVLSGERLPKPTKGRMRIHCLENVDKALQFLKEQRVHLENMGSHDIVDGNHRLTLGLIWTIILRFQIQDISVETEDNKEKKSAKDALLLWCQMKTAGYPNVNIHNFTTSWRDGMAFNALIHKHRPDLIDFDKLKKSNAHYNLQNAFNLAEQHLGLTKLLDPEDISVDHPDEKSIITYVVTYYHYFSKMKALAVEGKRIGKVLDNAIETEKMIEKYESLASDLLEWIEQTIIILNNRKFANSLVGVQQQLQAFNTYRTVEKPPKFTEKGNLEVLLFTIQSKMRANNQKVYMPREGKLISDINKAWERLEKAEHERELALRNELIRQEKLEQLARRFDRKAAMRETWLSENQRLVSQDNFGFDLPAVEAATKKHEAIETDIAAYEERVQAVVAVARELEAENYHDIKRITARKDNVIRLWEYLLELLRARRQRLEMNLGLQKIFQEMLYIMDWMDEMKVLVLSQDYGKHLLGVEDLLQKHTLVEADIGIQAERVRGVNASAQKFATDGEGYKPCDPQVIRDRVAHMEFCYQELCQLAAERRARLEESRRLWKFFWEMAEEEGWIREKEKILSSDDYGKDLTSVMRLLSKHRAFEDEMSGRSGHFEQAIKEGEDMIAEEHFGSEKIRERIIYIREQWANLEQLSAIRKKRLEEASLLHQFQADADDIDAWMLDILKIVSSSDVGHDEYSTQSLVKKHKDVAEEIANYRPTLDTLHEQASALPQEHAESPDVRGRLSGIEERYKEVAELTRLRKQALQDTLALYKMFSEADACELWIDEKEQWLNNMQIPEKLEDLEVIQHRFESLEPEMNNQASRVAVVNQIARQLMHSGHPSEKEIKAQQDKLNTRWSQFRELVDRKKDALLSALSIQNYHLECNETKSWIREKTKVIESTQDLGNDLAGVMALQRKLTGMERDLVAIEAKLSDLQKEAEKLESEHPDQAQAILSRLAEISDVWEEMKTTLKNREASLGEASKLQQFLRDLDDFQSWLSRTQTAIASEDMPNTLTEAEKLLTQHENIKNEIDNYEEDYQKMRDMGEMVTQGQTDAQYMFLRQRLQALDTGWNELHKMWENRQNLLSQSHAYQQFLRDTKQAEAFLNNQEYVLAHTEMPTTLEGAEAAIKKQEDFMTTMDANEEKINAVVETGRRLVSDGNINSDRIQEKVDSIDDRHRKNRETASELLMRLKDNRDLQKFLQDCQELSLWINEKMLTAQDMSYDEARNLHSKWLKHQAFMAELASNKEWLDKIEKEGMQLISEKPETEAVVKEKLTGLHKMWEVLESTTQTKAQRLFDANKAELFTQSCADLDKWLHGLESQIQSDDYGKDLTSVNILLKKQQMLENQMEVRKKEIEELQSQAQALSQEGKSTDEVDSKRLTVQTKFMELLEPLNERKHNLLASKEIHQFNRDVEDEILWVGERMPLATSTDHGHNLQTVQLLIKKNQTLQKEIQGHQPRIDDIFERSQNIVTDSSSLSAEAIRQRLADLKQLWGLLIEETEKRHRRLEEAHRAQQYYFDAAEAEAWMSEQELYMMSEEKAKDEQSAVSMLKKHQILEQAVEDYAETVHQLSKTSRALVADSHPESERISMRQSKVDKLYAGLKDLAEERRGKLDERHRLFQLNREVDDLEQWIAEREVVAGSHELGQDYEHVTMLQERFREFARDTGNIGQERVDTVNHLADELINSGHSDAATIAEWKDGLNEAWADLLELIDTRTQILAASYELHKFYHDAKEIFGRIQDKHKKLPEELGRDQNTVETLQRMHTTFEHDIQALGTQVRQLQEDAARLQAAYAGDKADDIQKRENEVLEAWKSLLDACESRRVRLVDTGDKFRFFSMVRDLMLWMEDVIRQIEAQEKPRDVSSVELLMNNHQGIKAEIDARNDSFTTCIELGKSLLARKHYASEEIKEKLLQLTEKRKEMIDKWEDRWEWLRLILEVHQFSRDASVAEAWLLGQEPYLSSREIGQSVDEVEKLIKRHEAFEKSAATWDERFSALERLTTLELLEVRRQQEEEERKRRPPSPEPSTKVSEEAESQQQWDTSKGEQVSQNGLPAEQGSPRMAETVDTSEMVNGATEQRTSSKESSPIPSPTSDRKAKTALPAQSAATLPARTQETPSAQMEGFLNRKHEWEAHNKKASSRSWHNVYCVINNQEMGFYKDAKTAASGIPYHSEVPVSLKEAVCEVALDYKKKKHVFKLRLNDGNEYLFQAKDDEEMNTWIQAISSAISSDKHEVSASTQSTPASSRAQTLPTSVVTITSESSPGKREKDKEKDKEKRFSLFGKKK
T9 sequence (P42684 whole entry): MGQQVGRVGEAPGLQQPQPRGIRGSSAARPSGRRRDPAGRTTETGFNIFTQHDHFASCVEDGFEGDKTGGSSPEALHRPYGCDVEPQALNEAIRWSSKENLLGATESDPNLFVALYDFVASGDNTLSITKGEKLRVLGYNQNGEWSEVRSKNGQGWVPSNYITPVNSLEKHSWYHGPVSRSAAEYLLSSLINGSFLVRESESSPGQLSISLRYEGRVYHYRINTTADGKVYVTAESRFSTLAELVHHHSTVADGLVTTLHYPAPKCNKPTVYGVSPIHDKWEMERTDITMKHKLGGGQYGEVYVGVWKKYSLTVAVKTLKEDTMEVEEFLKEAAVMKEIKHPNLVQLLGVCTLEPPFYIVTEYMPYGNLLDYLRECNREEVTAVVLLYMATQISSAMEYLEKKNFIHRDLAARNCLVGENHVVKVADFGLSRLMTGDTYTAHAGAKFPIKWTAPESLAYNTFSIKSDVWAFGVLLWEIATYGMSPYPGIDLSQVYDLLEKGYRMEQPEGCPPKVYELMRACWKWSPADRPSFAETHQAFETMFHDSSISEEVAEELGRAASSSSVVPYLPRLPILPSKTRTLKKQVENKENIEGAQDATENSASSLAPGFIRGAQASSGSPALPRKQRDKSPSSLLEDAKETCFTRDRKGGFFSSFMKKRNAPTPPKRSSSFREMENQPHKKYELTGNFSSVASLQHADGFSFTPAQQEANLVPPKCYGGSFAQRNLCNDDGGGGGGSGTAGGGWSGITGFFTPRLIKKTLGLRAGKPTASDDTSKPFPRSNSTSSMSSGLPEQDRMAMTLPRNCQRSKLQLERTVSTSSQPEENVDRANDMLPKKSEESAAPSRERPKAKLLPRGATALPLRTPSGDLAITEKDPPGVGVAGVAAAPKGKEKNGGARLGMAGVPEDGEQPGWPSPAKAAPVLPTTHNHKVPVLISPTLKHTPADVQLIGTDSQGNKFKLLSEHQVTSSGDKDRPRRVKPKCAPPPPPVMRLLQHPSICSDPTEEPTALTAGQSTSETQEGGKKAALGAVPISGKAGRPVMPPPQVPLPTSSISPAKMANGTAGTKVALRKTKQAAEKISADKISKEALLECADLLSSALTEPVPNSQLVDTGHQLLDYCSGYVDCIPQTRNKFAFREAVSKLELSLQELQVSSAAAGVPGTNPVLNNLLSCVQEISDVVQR
T10 sequence (O75821 whole entry): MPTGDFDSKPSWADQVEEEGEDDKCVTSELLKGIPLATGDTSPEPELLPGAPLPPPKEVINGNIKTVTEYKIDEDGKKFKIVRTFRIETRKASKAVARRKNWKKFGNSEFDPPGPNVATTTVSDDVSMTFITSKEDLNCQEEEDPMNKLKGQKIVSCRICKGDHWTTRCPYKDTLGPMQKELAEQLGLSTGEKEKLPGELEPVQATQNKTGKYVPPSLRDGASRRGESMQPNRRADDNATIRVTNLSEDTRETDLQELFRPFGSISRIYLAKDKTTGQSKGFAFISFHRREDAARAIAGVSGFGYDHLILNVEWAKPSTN
T19 sequence (P10606 32-129): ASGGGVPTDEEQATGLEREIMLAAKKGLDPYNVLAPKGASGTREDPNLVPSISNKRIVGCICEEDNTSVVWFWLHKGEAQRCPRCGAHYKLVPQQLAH
T12 sequence (O43809 whole entry): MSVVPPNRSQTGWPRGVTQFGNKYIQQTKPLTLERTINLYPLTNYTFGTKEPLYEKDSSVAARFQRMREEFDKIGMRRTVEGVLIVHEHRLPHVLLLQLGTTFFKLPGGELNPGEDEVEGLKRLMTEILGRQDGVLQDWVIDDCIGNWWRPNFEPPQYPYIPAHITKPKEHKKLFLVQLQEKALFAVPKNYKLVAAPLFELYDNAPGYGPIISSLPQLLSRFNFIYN

Structure (SMILES): Cc1ccc(C(=O)Nc2ccc(CN3CCN(C)CC3)c(C(F)(F)F)c2)cc1C#Cc1cnc2cccnn12 [PON]
- Average LFQ PON_WT [1]: 21.1425
- Average LFQ PON_WT [2]: 19.0546
- Average LFQ PON_WT [3]: 25.171
- Average LFQ PON_WT [4]: 21.283
- Average LFQ PON_WT [5]: 28.7804
- Average LFQ PON_WT [6]: 27.1657
- Average LFQ PON_WT [7]: 26.8473
- Average LFQ PON_WT [8]: 24.813
- Average LFQ PON_WT [9]: 26.1742
- Average LFQ PON_WT [10]: 21.2492
- Average LFQ PON_WT [11]: 21.4728
- Average LFQ PON_WT [12]: 20.8271
- Average LFQ PON_WT [13]: 20.5654
- Average LFQ PON_WT [14]: 23.9034
- Average LFQ PON_WT [15]: 23.258

Structure (SMILES): Cc1ccc(C(=O)Nc2ccc(CN3CCN(CCCN)CC3)c(C(F)(F)F)c2)cc1C#Cc1cnc2cccnn12 [c-ponatinib, reference compound]
- Average LFQ intensity [16]: 21.9786
- Average LFQ intensity [17]: 22.0908
- Average LFQ intensity [18]: 23.0265
- Average LFQ intensity [19]: 22.1378
